Earlier results, collected in US20210400979A1, “ANTI-VIRAL FACE MASK AND FILTER MATERIALS” (priority 2020, published 2021).

Tests used:
[1] = tested on: RTCs of SARS-CoV (RNA-synthesizing activity); details: RTCs isolated from SARS-CoV infected cells, various Zn^2+ concentrations (FIG. 13A)

| Compound | RNA-synthesizing activity of the RTCs of the virus [1] | water solubility (in words) |
| --- | --- | --- |
| [Zn+2] [Zn^2+] | efficiently inhibits |  |
| zinc picolinate |  | moderately water soluble |
